# Measured values: patent US20130315982A1, “LIPOSOMAL DRUG COMPOSITION CONTAINING A POLYMERIC GUANIDINE DERIVATIVE” (MINDINVEST HOLDINGS LTD., priority 2010, published 2013)
# System: tumor cells
# Experiment: Resistance study with 30 passages
# Format: cell-based
# Text: It has been shown that the problem can be solved by encapsulation of the polymeric guanidine derivate in PEGylated liposomes, which ensures that the drug substance reaches its target in higher concentrations, e.g. the malignant tumor cells. […] The commonly known cytostatics induce such cellular resistance mechanisms requiring higher, toxic doses, which cause severe side effects.
substance,measurement,value
poly-[2-(2-ethoxyethoxyethyl)guanidinium hydrochloride] [API],reduction of activity (induction of resistance),no reduction of activity
